Results published in patent publication US20240424004A1, “COMBINATION OF TLR LIGANDS, COMPOUNDS LABELLING TUMORS FOR IMMUNE ATTACK, ANTI-CD40 ANTIBODIES AND INHIBITORS OF GLUTAMINE METABOLISM FOR TREATING CANCER” (priority 2021, published 2024).

How the values were obtained:
[1] = system: Panc02 cells; assay: Example 6: bilateral Panc02 model, i.t. MBTA + DON i.t. (left tumor) versus i.p.; type: in vivo, C57BL/6 mice; conditions: with MBTA in right tumor, days 1,8,15,22,29
Experimental: (§1) Subcutaneous transplantation: Mice were subcutaneously injected with 4×10^5 Panc02 cells in 0.1 ml DMEM or 4×10^5 B16-F10 cells in 0.1 ml RPMI 1640 medium without additives into pre-shaved groin (right or both right and left).
(§2) MBTA immunotherapy: 50 μl of the therapeutic mixture consisting of 0.5 mg R-848, HCl form+0.5 mg poly (I:C), 0.5 mg LTA and 0.4 mg anti-CD40/ml of 0.2 mM mannan-BAM in PBS was administered intratumorally on days 0, 1, 2, 8, 9, 10, 16, 17, 18, 24, 25, and 26. The combination of R-848, poly (I:C), LTA, mannan-BAM and anti-CD40 antibody is hereinafter referred to as ‘MBTA’. In the case of the bilateral Panc02 tumor model, MBTA therapy was always injected only into the right subcutaneous tumor.
(§3) Evaluation of treatment: Tumor sizes were measured every other day using a digital calliper. The formula V=(π/6)AB^2, A being the largest tumor size, B being the smallest tumor size, was used to calculate tumor volume.
(§4) The areas under the curves (AUC) were calculated to evaluate tumor growth. The obtained values were statistically evaluated by one-way ANOVA with unequal post hoc test. Kaplan-Meier survival curves were evaluated using the long-rank test. STATISTICA 12 software (StatSoft, Inc., Tulsa, OK, USA) was used for all statistical evaluations. Error bars represent standard error of the mean (SEM). […]

[2] = system: Panc02 cells; assay: Example 7: bilateral Panc02 model, i.t. MBTA + i.p. DON, efficacy and side effects; type: in vivo; conditions: DON 400 μg i.p., days 1,8,15,22,29, with i.t. MBTA
Experimental: as §1, §2, §3, §4

[3] = system: Panc02 cells; assay: Example 4: bilateral Panc02 model, i.t. MBTA + i.p. DON in two timing regimes; type: in vivo; conditions: for prolongation of mice survival: FIG. 4C
Experimental: as §1, §2, §3
The areas under the curves (AUC) were calculated to evaluate tumor growth. The obtained values were statistically evaluated by one-way ANOVA with unequal post hoc test. Kaplan-Meier survival curves were evaluated using the long-rank test. STATISTICA 12 software (StatSoft, Inc., Tulsa, OK, USA) was used for all statistical evaluations. Error bars represent standard error of the mean (SEM).
To improve MBTA/DON combined therapy outcomes we tested the intraperitoneal administration of DON in combination with i.t. MBTA therapy. The total amount of DON (2 mg/mouse/therapy) was applied in two different regimes as further specified.
C57BL/6 mice were s.c. inoculated with Panc02 cells in both right and left flank. After 12 days, mice were randomized into four groups (n=6/group): Group treated with PBS applied in the right tumor; group treated with MBTA applied in the right tumor; group treated with MBTA applied in the right tumor, and DON applied i.p. (13 doses); group treated with MBTA applied in the right tumor, and DON applied i.p. (5 doses, red). MBTA (PBS in the control group) was applied in pulse regime on days 0, 1, 2, 8, 9, 10, 16, 17, 18, 24, 25, and 26. DON was administered i.p. on days 5, 13, 21, 29, 37 (400 μg) and 1, 3, 5, 7, 9, 11, 13 15 17 19 21, 23, 25 (154 μg), respectively.
FIG. 4A, B: Growth of right/left tumors. Statistical analysis was performed by calculating AUC (area under the curve) values using a one-way ANOVA test with Tukey's post hoc test (* p<0.05, **** p<0.001, ***** p<0.0005), FIG. 4 C: Survival analysis.

[4] = system: Panc02 cells; assay: Example 5: bilateral Panc02 model, i.t. MBTA + s.c. DON in different dosages; type: in vivo, C57BL/6 mice; conditions: with i.t. MBTA, DON s.c. 80 μg or 400 μg, days 1,9,17,25,33
Experimental: as §1, §2, §3, §4

For `[N-]=[N+]=CC(=O)CC[C@H](N)C(=O)O` [DON, 6-diazo-5-oxo-norleucine], the “survival of treated mice” value ([1]; DON 400 μg i.p., FIG. 6C) was “significantly prolonged”, the “efficacy of the therapy” value ([1]; DON 400 μg i.t. in left tumor, FIG. 6) was “did not improve the efficacy” and the “water and food consumption” value ([2]; FIG. 7D, E) was “without any influence”. The “weight of treated mice” value ([2]; FIG. 7F) was “without any influence”, the “early deaths of treated mice” value ([3]; DON i.p. with a sufficient interval between each application, with i.t. MBTA (summary of Examples 4 to 6)) was “did not observe any early deaths” and the “prolongation of mice survival” value ([3]; with i.t. MBTA, DON i.p. 154 μg, 13 doses, every other day) was “evident but not statistically significant”. The “prolongation of mice survival” value ([3]; with i.t. MBTA, DON i.p. 400 μg, 5 doses) was “evident but not statistically significant”, the “tolerability of regime / early death” value ([3]; with i.t. MBTA, DON i.p. every other day (154 μg, 13 doses), n=6/group) was “too aggressive and resulted in early death of three mice” and the “reduction of tumor growth, compared to i.p. administration of DON (Example 4)” value ([4]; FIG. 5A, B) was “less evident”. For the same compound, the “early deaths of treated mice” value ([4]; FIG. 5C) was “No early deaths”.
